# Assays:
# [1] = tested on: 12 different G4 oligos as well as non-G4 oligos (dsDNA and ssDNA); assay: Small-scale DNA G4 microarray binding selectivity; conditions: B33 at 2.5 μM
# Procedure: In this example, a small-scale DNA G4 microarray containing 12 different G4 oligos as well as non-G4 oligos (dsDNA and ssDNA) was fabricated and tested (Table 4). To start with, a SA-coated glass surface was prepared. An amino-functionalized glass slide was firstly modified with a solution of N, N′-disuccinimidyl carbonate (DSC, 1.0 M) and N, N-diisopropylethylamine (DIPEA, 1.0 M) in DMF overnight at room temperature. After being washed successively with EtOH, Milli-Q water (5 min each) and dried with N2 gas, the slide was incubated with 1 mg/mL of SA solution for 12 h (overnight) in a 4° C. fridge, followed by blocking the surface with EA buffer for 30 minutes. Then, the slide was rinsed with PBS buffer and Milli-Q water, and dried b centrifugation (1,700 g, 2 min).
# In parallel, biotin-labeled DNA/RNA oligos were prepared in annealing buffer resulting in 5 μM stock solutions, followed by annealing (according to above methods). Then all the oligo solutions were transferred into a 384-well plate. Next, the microarray printing was conducted by a robotic arrayer (Nanoprint, Arrayit, USA) with a humidity of 60%. After the microarray was fabricated, the slide was placed in a slide box with a piece of wet Kimwipe tissue and incubated at 4° C. for 2 h.
# To incubate with the fluorescent compounds (compound B33, thiazole orange (“TO”), and amsacrine), the slide was thoroughly rinsed with PBST, PBS, and water to remove the unbounded oligos. Then, the slide was dried by centrifugation (1,700 g, 2 min) and quickly assembled with microarray gaskets (Agilent, USA), followed by loading the compound solutions. After 1 h incubation, the slide was washed and dried with the above-mentioned method. Finally, the microarray slide was imaged by a fluorescence scanner (Mapix) using green channel and the fluorescence intensities were quantified.
# NBEB cells = assay: MTS cell survival assay; type: cell-based; conditions: up to 45 μM
# Procedure: (§1) To examine the effects of G4-binding compounds on NBEB cells, live-cell imaging was performed using an Incucyte interface (described below). NBEB (5K/well), cells were seeded into 96-well plates in triplicate, treated with compound MY-8 at various concentrations (0-45 μM), and cultured until control wells reached confluence. For RT-qPCR and western blotting, NBEB (300K) cells were treated with MY-8 in 6-well dish for 48 h. To examine the time-dependent decrease in MYCNOs expression, cells were treated with 22.5 μM and 45 μM MY-8 and analyzed at various times (0, 4, 24, 48, 72 and 96 h). To validate cell viability, a Trypan Blue exclusion test was performed following treatment at 48 h and 96 h post treatment and the proportion of live versus dead cells was calculated using a hemocytometer.
# Cell survival. Following live cell image analysis, a 3-(4, 5-dimethylthiazol-2-yl)-5-(3-carboxymethoxyphenyl)-2-(4-sulfophenyl)-2H-tetrazolium inner salt assay was performed to examine cell survival. (MTS; inner salt assay; Promega, America). Absorbance was measured with a microplate reader (BIO-RAD, America) at 490 nm wavelength. To calculate the proportion of viable cells, MY-8 treated cells were divided by the control samples from each group.
# [2] = tested on: MYCNOS001 and MYCNOS002 transcripts; assay: qRT-PCR of MYCNOS transcripts in NBEB cells; type: cell-based
# Procedure: as §1, with “For RT-qPCR and western blotting, NBEB (300K) cells were treated with MY-8 in 6-well dish for 48 h. To examine the time-dependent decrease in MYCNOs expression, cells were treated with 22.5 μM and 45 μM MY-8 and analyzed at various times (0, 4, 24, 48, 72 and 96 h).” left out
# Quantitative RT-PCR. Total RNA was extracted from NBEB cells according to manufacturer's instructions (RNeasy Plus Mini Extraction kit (#74134) (Qiagen, CA). RNA (1 μg) was reverse transcribed into cDNA using the cDNA synthesis High-Capacity RNA-to-cDNA™ Kit. Quantitative PCR was performed using Fast SYBR™ Green Master Mix according to the manufacturer's protocol. Beta-actin was used as a housekeeping gene. Relative expression was calculated using the 2(−ΔCt) method. The qPCR primer sequences can be found in supplementary materials.
# N-Myc protein = assay: Western blot of N-Myc protein in NBEB cells; type: cell-based; conditions: 48 h, Western blotting
# Procedure: as §1
# Protein assay. Forty-eight hours post-MY-8 treatment in 6-well plates, single copy MYCN cells were lysed directly in the plate with Radioimmunoprecipitation assay buffer (Beyotime, China), pelleted, and chilled at −80° C. […] Total protein concentrations were determined using a Bradford Assay using the Bradford reagent (Beyotime, China). […] Chemiluminescent signal was detected using Clarity™ Western ECL Substrate (Bio-Rad, USA) or Supersignal™ West Femto Maximum Sensitivity Substrate (ThermoFisher Scientific, USA) with a ChemiDoc gel imaging system (Bio-Rad, USA).
# [3] = NBEB cells, 24, 36, 48 h, higher concentrations
SMILES,binding to dsDNA/ssDNA in microarray [1],binding to hairpin containing G4 DNAs hTERT and BCL2 in microarray [1],binding pattern in G4 microarray ([1]; fluorescent compound incubated 1 h),CC50 (NBEB cells),"MYCNOS001 mRNA level [2, 3]","MYCNOS002 mRNA level [2, 3]","onset of MYCNOS002 decrease ([2]; NBEB cells, time course)",levels of N-Myc protein (N-Myc protein)
"COc1ccc(-c2noc(-c3ccc(NCCCNc4c5ccc(Cl)cc5nc5ccc(OC)cc45)nn3)n2)cc1 [B33, N^1-(6-chloro-2-methoxyacridin-9-yl)-N^3-(6-(3-(4-methoxyphenyl)-1,2,4-oxadiazol-5-yl)pyridazin-3-yl)propane-1,3-diamine]",no binding to dsDNA/ssDNA was observed,didn't show fluorescence,only MYCN spots lighted up,,,,,
"COc1ccc(-c2noc(-c3ccc(NCCCN4CCCCCC4)nn3)n2)cc1 [MY-8, N-(3-(azepan-1-yl)propyl)-6-(3-(4-methoxyphenyl)-1,2,4-oxadiazol-5-yl)pyridazin-3-amine]",,,,20.5 µM,clear decreases of mRNA level,clear decreases of mRNA level,decreased as early as 24 h,decreased upon treatment with MY-8 in a dose-dependent fashion
